Among the data in patent US7253187B2, “Heterocyclic inhibitors of ERK2 and uses thereof” (Vertex Pharmaceuticals Incorporated, priority 2001, dated 2007) are Ki values, retold here.

Read-outs that look alike come from different tables or passages of the source. Some results are limits rather than exact numbers.

One assay deals with ERK2 (Homo sapiens, UniProt P28482). Nature of the assay: ERK2 inhibition assay (spectrophotometric coupled-enzyme assay). The format is biochemical. On the procedure:
The IC50 was evaluated from the rate data as a function of inhibitor concentration. […] The compound numbers correspond to the compound numbers in Table 1.

Another assay has as its target T1, GSK-3β (AA 1–420) (Homo sapiens, UniProt P49841).
T1 construct: GSK-3β (AA 1–420)
In words: GSK-3 inhibition assay (coupled enzyme system). The format is biochemical. As to conditions: read-out: GSK3 Inhibitory Activity (Ki class). On the procedure:
Final substrate concentrations in the assay were 20 μM ATP (Sigma Chemicals, St Louis, Mo.) and 300 μM peptide (HSSPHQS(PO3H2)EDEEE, American Peptide, Sunnyvale, Calif.). Reactions were carried out at 30° C. and 20 nM GSK-3β. Final concentrations of the components of the coupled enzyme system were 2.5 mM phosphoenolpyruvate, 300 μM NADH, 30 μg/ml pyruvate kinase and 10 μg/ml lactate dehydrogenase.
An assay stock buffer solution was prepared containing all of the reagents listed above with the exception of ATP and the test compound of interest. The assay stock buffer'solution (175 μl) was incubated in a 96 well plate with 5 μl of the test compound of interest at final concentrations spanning 0.002 μM to 30 μM at 30° C. for 10 min. […] The reaction was initiated by the addition of 20 μl of ATP (final concentration 20 μM). Rates of reaction were obtained using a Molecular Devices Spectramax plate reader (Sunnyvale, Calif.) over 10 min at 30° C. The Ki values were determined from the rate data as a function of inhibitor concentration.
The compound numbers correspond to the compound numbers in Table 1.

[1] abbreviates: read-out: ERK2 Inhibitory Activity (Ki class D-F).

Sequence of ERK2 (P28482 whole entry): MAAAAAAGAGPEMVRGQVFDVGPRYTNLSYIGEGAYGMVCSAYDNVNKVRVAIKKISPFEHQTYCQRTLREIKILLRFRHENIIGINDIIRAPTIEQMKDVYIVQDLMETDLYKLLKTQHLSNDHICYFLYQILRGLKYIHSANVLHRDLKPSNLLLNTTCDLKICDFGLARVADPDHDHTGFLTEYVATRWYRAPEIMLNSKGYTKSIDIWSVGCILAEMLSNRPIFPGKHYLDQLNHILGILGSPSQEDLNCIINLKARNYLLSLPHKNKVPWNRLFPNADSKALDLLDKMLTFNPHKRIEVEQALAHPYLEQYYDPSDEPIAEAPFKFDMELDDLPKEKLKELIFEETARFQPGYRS
T1 sequence (P49841 whole entry, species assumed, the tested form may be a part): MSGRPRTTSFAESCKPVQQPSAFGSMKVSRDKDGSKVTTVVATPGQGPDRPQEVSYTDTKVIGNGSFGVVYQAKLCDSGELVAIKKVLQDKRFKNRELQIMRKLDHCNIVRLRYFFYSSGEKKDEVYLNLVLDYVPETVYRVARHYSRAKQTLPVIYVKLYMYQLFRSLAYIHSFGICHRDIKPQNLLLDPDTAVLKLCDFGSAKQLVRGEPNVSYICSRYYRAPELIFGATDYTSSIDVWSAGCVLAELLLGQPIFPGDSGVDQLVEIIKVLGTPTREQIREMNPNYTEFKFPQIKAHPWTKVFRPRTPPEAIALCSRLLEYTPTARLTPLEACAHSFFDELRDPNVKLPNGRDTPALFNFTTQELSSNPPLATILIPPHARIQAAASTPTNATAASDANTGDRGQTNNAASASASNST

As for `CNc1ncc(C)c(-c2c[nH]c(C(=O)NC(CO)c3ccc(F)c(Cl)c3)c2)n1` (stereo not shown) [III-a-134, 4-(5-Methyl-2-methylamino-pyrimidin-4-yl)-1H-pyrrole-2-carboxylic acid [1-(3-chloro-4-fluoro-phenyl)-2-hydroxy-ethyl]-amide], the Ki on ERK2 (setting [1]) is < 100 nM; at GSK-3β (AA 1–420), > 1000 nM.

As for `COc1cccc(Nc2ncc(C)c(-c3c[nH]c(C(=O)NC(CO)c4ccccc4)c3)n2)c1` (stereo not shown) [III-a-137, 4-[2-(3-Methoxy-phenylamino)-5-methyl-pyrimidin-4-yl]-1H-pyrrole-2-carboxylic acid (2-hydroxy-1-phenyl-ethyl)-amide], the inhibition constant (Ki) at GSK-3β (AA 1–420) was < 100 nM.

For the molecule `O=C(NC(CO)c1ccccc1)c1cc(-c2nc(Nc3ccccc3)ncc2C2CC2)c[nH]1` (stereo not shown) [III-a-144, 4-(5-Cyclopropyl-2-phenylamino-pyrimidin-4-yl)-1H-pyrrole-2-carboxylic acid (2-hydroxy-1-phenyl-ethyl)-amide], the Ki on ERK2 (setting [1]) is 100 to 1000 nM; on GSK-3β (AA 1–420), > 1000 nM.

With `Cc1ccc(C(CO)NC(=O)c2cc(-c3nc(Nc4ccccc4)ncc3C)c[nH]2)cc1F` (stereo not shown) [III-a-145, 4-(5-Methyl-2-phenylamino-pyrimidin-4-yl)-1H-pyrrole-2-carboxylic acid [1-(3-fluoro-4-methyl-phenyl)-2-hydroxy-ethyl]-amide], the inhibition constant Ki at ERK2 (setting [1]) and on GSK-3β (AA 1–420) was < 100 nM throughout.

Consider `Cc1ccc(C(CO)NC(=O)c2cc(-c3nc(Nc4cccc(F)c4)ncc3C)c[nH]2)cc1F` (stereo not shown) [III-a-147, 4-[2-(3-Fluoro-phenylamino)-5-methyl-pyrimidin-4-yl]-1H-pyrrole-2-carboxylic acid [1-(3-fluoro-4-methyl-phenyl)-2-hydroxy-ethyl]-amide], for which the inhibition constant Ki on ERK2 (setting [1]) and on GSK-3β (AA 1–420) was < 100 nM in each case.

Take `Cc1ccc(Nc2ncc(C)c(-c3c[nH]c(C(=O)NC(CO)c4ccccc4)c3)n2)cc1C` (stereo not shown) [III-a-151, 4-[2-(3,4-Dimethyl-phenylamino)-5-methyl-pyrimidin-4-yl]-1H-pyrrole-2-carboxylic acid (2-hydroxy-1-phenyl-ethyl)-amide]: the Ki on ERK2 (setting [1]) and at GSK-3β (AA 1–420) was < 100 nM in each case.

For `Cc1cnc(NC(C)C)nc1-c1c[nH]c(C(=O)NC(CO)c2ccccc2)c1` (stereo not shown) [III-a-153, 4-(2-Isopropylamino-5-methyl-pyrimidin-4-yl)-1H-pyrrole-2-carboxylic acid (2-hydroxy-1-phenyl-ethyl)-amide], the Ki on ERK2 (setting [1]) and at GSK-3β (AA 1–420) was < 100 nM in each case.

For the molecule `Cc1cnc(NCC(F)(F)F)nc1-c1c[nH]c(C(=O)NC(CO)c2ccccc2)c1` (stereo not shown) [III-a-154, 4-[5-Methyl-2-(2,2,2-trifluoro-ethylamino)-pyrimidin-4-yl]-1H-pyrrole-2-carboxylic acid (2-hydroxy-1-phenyl-ethyl)-amide], the Ki at ERK2 (setting [1]) and on GSK-3β (AA 1–420) was < 100 nM throughout.

Take `Cc1cnc(Nc2ccc(OC(F)(F)F)cc2)nc1-c1c[nH]c(C(=O)NC(CO)c2ccccc2)c1` (stereo not shown) [III-a-157, 4-[5-Methyl-2-(4-trifluoromethoxy-phenylamino)-pyrimidin-4-yl]-1H-pyrrole-2-carboxylic acid (2-hydroxy-1-phenyl-ethyl)-amide]: the Ki at ERK2 (setting [1]) and at GSK-3β (AA 1–420) was < 100 nM in each case.

On to `Cc1cnc(NCC(C)C)nc1-c1c[nH]c(C(=O)NC(CO)c2ccccc2)c1` (stereo not shown) [III-a-158, 4-(2-Isobutylamino-5-methyl-pyrimidin-4-yl)-1H-pyrrole-2-carboxylic acid (2-hydroxy-1-phenyl-ethyl)-amide], for which the Ki on ERK2 (setting [1]) and at GSK-3β (AA 1–420) was < 100 nM each time.

On to `Cc1cnc(NC(CO)c2ccccc2)nc1-c1c[nH]c(C(=O)NC(CO)c2ccccc2)c1` (stereo not shown) [III-a-166, 4-[2-(2-Hydroxy-1-phenyl-ethylamino)-5-methyl-pyrimidin-4-yl]-1H-pyrrole-2-carboxylic acid (2-hydroxy-1-phenyl-ethyl)-amide], for which the results for the Ki at ERK2 (ERK2 Inhibitory Activity (Ki class D-F)) and at GSK-3β (AA 1–420) were 100 to 1000 nM and > 1000 nM, respectively.

As for `CCNc1ncc(C)c(-c2c[nH]c(C(=O)NC(CCO)c3ccccc3)c2)n1` (stereo not shown) [III-a-172, 4-(2-Ethylamino-5-methyl-pyrimidin-4-yl)-1H-pyrrole-2-carboxylic acid (3-hydroxy-1-phenyl-propyl)-amide], the Ki on ERK2 (setting [1]) and at GSK-3β (AA 1–420) was > 1000 nM throughout.

Consider `CCNc1ncc(C)c(-c2c[nH]c(C(=O)NC(CCO)c3ccccc3)c2)n1` (stereo not shown) [III-a-173, 4-(2-Ethylamino-5-methyl-pyrimidin-4-yl)-1H-pyrrole-2-carboxylic acid (3-hydroxy-1-phenyl-propyl)-amide], for which the Ki is 100 to 1000 nM on ERK2 (setting [1]) and > 1000 nM at GSK-3β (AA 1–420).

As to `Cc1cnc(NCCO)nc1-c1c[nH]c(C(=O)NC(CO)c2ccccc2)c1` (stereo not shown) [III-a-175, 4-[2-(2-Hydroxy-ethylamino)-5-methyl-pyrimidin-4-yl]-1H-pyrrole-2-carboxylic acid (2-hydroxy-1-phenyl-ethyl)-amide], the Ki on ERK2 (setting [1]) was < 100 nM; on GSK-3β (AA 1–420) it was 100 to 1000 nM.

Regarding `Cc1cnc(NC(C)CO)nc1-c1c[nH]c(C(=O)NC(CO)c2ccccc2)c1` (stereo not shown) [III-a-176, 4-[2-(2-Hydroxy-1-methyl-ethylamino)-5-methyl-pyrimidin-4-yl]-1H-pyrrole-2-carboxylic acid (2-hydroxy-1-phenyl-ethyl)-amide], the Ki on ERK2 (setting [1]) and at GSK-3β (AA 1–420) was < 100 nM in each case.

Turning to `Cc1cnc(NCC(C)O)nc1-c1c[nH]c(C(=O)NC(CO)c2ccccc2)c1` (stereo not shown) [III-a-177, 4-[2-(2-Hydroxy-propylamino)-5-methyl-pyrimidin-4-yl]-1H-pyrrole-2-carboxylic acid (2-hydroxy-1-phenyl-ethyl)-amide], the Ki on ERK2 (setting [1]) was < 100 nM; on GSK-3β (AA 1–420), 100 to 1000 nM.

As to `Cc1cnc(NCC(C)O)nc1-c1c[nH]c(C(=O)NC(CO)c2ccccc2)c1` (stereo not shown) [III-a-178, 4-[2-(2-Hydroxy-propylamino)-5-methyl-pyrimidin-4-yl]-1H-pyrrole-2-carboxylic acid (2-hydroxy-1-phenyl-ethyl)-amide], the Ki on ERK2 (setting [1]) was < 100 nM; on GSK-3β (AA 1–420), 100 to 1000 nM.

Turning to `Cc1cnc(NC2CCCCC2O)nc1-c1c[nH]c(C(=O)NC(CO)c2ccccc2)c1` (stereo not shown) [III-a-179, 4-[2-(2-Hydroxy-cyclohexylamino)-5-methyl-pyrimidin-4-yl]-1H-pyrrole-2-carboxylic acid (2-hydroxy-1-phenyl-ethyl)-amide], the Ki at ERK2 (setting [1]) and at GSK-3β (AA 1–420) was < 100 nM each time.

Take `CCN(C(=O)c1cc(-c2ccnc(N)n2)c[nH]1)C(C)C(O)c1ccccc1` (stereo not shown) [III-a-181, 4-(2-Amino-pyrimidin-4-yl)-1H-pyrrole-2-carboxylic acid (2-hydroxy-1-methyl-2-phenyl-ethyl)-ethyl-amide]: the Ki on GSK-3β (AA 1–420) was > 1000 nM.

In the case of `CCNc1ncc(C)c(-c2c[nH]c(C(=O)NC(C(=O)OC)c3ccccc3)c2)n1` (stereo not shown) [III-a-184, {[4-(2-Ethylamino-5-methyl-pyrimidin-4-yl)-1H-pyrrole-2-carbonyl]-amino}-phenyl-acetic acid methyl ester], the Ki is 100 to 1000 nM on ERK2 (setting [1]) and > 1000 nM on GSK-3β (AA 1–420).

As to `CCNc1ncc(COC)c(-c2c[nH]c(C(=O)NC(CO)c3ccccc3)c2)n1` (stereo not shown) [III-a-187, 4-(2-Ethylamino-5-methoxymethyl-pyrimidin-4-yl)-1H-pyrrole-2-carboxylic acid (2-hydroxy-1-phenyl-ethyl)-amide], the inhibition constant (Ki) at GSK-3β (AA 1–420) was > 1000 nM.

For `CCNc1ncc(C)c(-c2c[nH]c(C(=O)NC(CO)c3cccnc3)c2)n1` (stereo not shown) [III-a-188, 4-(2-Ethylamino-5-methyl-pyrimidin-4-yl)-1H-pyrrole-2-carboxylic acid (2-hydroxy-1-pyridin-3-yl-ethyl)-amide], the Ki was 100 to 1000 nM on ERK2 (setting [1]) and > 1000 nM on GSK-3β (AA 1–420).

In the case of `CCNc1ncc(CO)c(-c2c[nH]c(C(=O)NC(CO)c3ccccc3)c2)n1` (stereo not shown) [III-a-189, 4-(2-Ethylamino-5-hydroxymethyl-pyrimidin-4-yl)-1H-pyrrole-2-carboxylic acid (2-hydroxy-1-phenyl-ethyl)-amide], the Ki on ERK2 (setting [1]) is < 100 nM; at GSK-3β (AA 1–420), > 1000 nM.

For the molecule `CCNc1ncc(C)c(-c2c[nH]c(C(=O)NC(CO)c3cc(F)cc(C(F)(F)F)c3)c2)n1` (stereo not shown) [III-a-190, 4-(2-Ethylamino-5-methyl-pyrimidin-4-yl)-1H-pyrrole-2-carboxylic acid [1-(3-fluoro-5-trifluoromethyl-phenyl)-2-hydroxy-ethyl]-amide], the Ki at ERK2 (setting [1]) and at GSK-3β (AA 1–420) was 100 to 1000 nM each time.

Consider `CCNc1ncc(C)c(-c2c[nH]c(C(=O)NC(CO)c3cccc(F)c3)c2)n1` (stereo not shown) [III-a-191, 4-(2-Ethylamino-5-methyl-pyrimidin-4-yl)-1H-pyrrole-2-carboxylic acid [1-(3-fluoro-phenyl)-2-hydroxy-ethyl]-amide], for which the Ki on ERK2 (setting [1]) is < 100 nM; on GSK-3β (AA 1–420), 100 to 1000 nM.

Regarding `Cc1ccccc1Nc1ncc(C)c(-c2c[nH]c(C(=O)NC(CO)c3cccc(Cl)c3)c2)n1` (stereo not shown) [III-a-224, 4-(5-Methyl-2-o-tolylamino-pyrimidin-4-yl)-1H-pyrrole-2-carboxylic acid [1-(3-chloro-phenyl)-2-hydroxy-ethyl]-amide], the Ki at GSK-3β (AA 1–420) was < 100 nM.

On to `Cc1cnc(NN2CCOCC2)nc1-c1c[nH]c(C(=O)NC(CO)c2ccccc2)c1` (stereo not shown) [III-a-228, 4-[5-Methyl-2-(morpholin-4-ylamino)-pyrimidin-4-yl]-1H-pyrrole-2-carboxylic acid (2-hydroxy-1-phenyl-ethyl)-amide], for which, at GSK-3β (AA 1–420), the Ki was < 100 nM.

The term Ki denotes a dissociation constant, usually derived from enzyme kinetics or from competition with a known ligand.
